Results from patent publication US20030004172A1, “Fused pyrimidinone matrix metalloproteinase inhibitors” (priority 2001, published 2003).
pIC50: −log10 of the molar value.

Biological target: MMP-13CD (catalytic domain of collagenase-3) (Homo sapiens, UniProt P45452)
Assay: Thiopeptolide substrate hydrolysis inhibition assay, MMP-13CD
Type: biochemical
Settings: Table I; thiopeptolide substrate, HEPES pH 7.0, 22° C.; read-out: MMP-13CD IC50
Excerpt: Thiopeptolide substrates show virtually no decomposition or hydrolysis at or below neutral pH in the absence of a matrix metalloproteinase enzyme.

| Compound | pIC50 |
| --- | --- |
| COc1cccc(CNC(=O)c2cc3c(=O)n(CCCCCC#N)c(=O)n(C)c3s2)c1 [Example 283] | 5.77 |
| C/C=C/Cn1c(=O)c2cc(C(=O)NCc3cccc(OC)c3)sc2n(C)c1=O [Example 284] | 5.82 |
| COc1cccc(CNC(=O)c2cc3c(=O)n(CCc4cccc5ccccc45)c(=O)n(C)c3s2)c1 [Example 285] | 4.52 |
| CC/C=C/Cn1c(=O)c2cc(C(=O)NCc3cccc(OC)c3)sc2n(C)c1=O [Example 286] | 6.57 |
| CCC(C)n1c(=O)c2cc(C(=O)NCc3cccc(OC)c3)sc2n(C)c1=O (stereo not drawn) [Example 288] | 5.38 |
| C=C(C)Cn1c(=O)c2cc(C(=O)NCc3cccc(OC)c3)sc2n(C)c1=O [Example 289] | 5.57 |
| CCC(CC)n1c(=O)c2cc(C(=O)NCc3cccc(OC)c3)sc2n(C)c1=O [Example 290] | 4.82 |
| CCC#CCn1c(=O)c2cc(C(=O)NCc3cccc(OC)c3)sc2n(C)c1=O [Example 291] | 6.92 |
| COc1cccc(CNC(=O)c2cc3c(=O)n(CC=C(C)C)c(=O)n(C)c3s2)c1 [Example 292] | 5.00 |
| COc1cccc(CNC(=O)c2cc3c(=O)n(CCS(=O)(=O)c4ccc(C)cc4)c(=O)n(C)c3s2)c1 [Example 293] | < 4.00 |
| COc1cccc(CNC(=O)c2cc3c(=O)n(CCOc4ccc(Br)cc4)c(=O)n(C)c3s2)c1 [Example 295] | 6.64 |
| COc1cccc(CNC(=O)c2cc3c(=O)n(Cc4ccc5nonc5c4)c(=O)n(C)c3s2)c1 [Example 296] | 7.30 |
| COC(=O)Nc1cc(Cn2c(=O)c3cc(C(=O)NCc4cccc(OC)c4)sc3n(C)c2=O)on1 [Example 298] | 6.31 |
| COc1cccc(CNC(=O)c2cc3c(=O)n(CC(=O)C(CC(=O)OC(C)(C)C)NC(=O)OCc4ccccc4)c(=O)n(C)c3s2)c1 (stereo not drawn) [Example 299] | 4.52 |
| Cc1c(C(=O)OCc2ccccc2)sc2[nH]c(=O)n(Cc3ccc(Br)cc3)c(=O)c12 [Example 301, 3-(4-Bromo-benzyl)-5-methyl-2,4-dioxo-1,2,3,4-tetrahydro-thieno[2,3-d]pyrimidine-6-carboxylic acid benzyl ester] | < 4.00 |
| Cc1c(C(=O)OCc2ccccc2)sc2[nH]c(=O)n(Cc3ccc(F)cc3)c(=O)c12 [Example 302, 3-(4-Fluoro-benzyl)-5-methyl-2,4-dioxo-1,2,3,4-tetrahydro-thieno[2,3-d]pyrimidine-6-carboxylic acid benzyl ester] | 4.52 |
| Cn1c(=O)n(Cc2ccccc2)c(=O)c2cc(C(=O)OCc3cc4ccccc4s3)sc21 [Example 304, 3-Benzyl-1-methyl-2,4-dioxo-1,2,3,4-tetrahydro-thieno[2,3-d]pyrimidine-6-carboxylic acid benzo[b]thiophen-2-ylmethyl ester] | 5.51 |
| Cn1c(=O)n(Cc2ccc3c(c2)OCO3)c(=O)c2cc(C(=O)OCc3ccccc3)sc21 [Example 307, 3-1,3-Benzodioxol-5-ylmethyl-1-methyl-2,4-dioxo-1,2,3,4-tetrahydro-thieno[2,3-d]pyrimidine-6-carboxylic acid benzyl ester] | 8.28 |
| Cc1c(C(=O)OCc2ccccc2)sc2[nH]c(=O)n(Cc3ccc(Cl)c(Cl)c3)c(=O)c12 [Example 310, 3-(3,4-Dichloro-benzyl)-5-methyl-2,4-dioxo-1,2,3,4-tetrahydro-thieno[2,3-d]pyrimidine-6-carboxylic acid benzyl ester] | 4.52 |
| Cn1c(=O)n(Cc2ccc(OC(F)(F)F)cc2)c(=O)c2cc(C(=O)OCc3ccccc3)sc21 [Example 311, 1-Methyl-2,4-dioxo-3-(4-trifluoromethoxy-benzyl)-1,2,3,4-tetrahydro-thieno[2,3-d]pyrimidine-6-carboxylic acid benzyl ester] | 7.07 |
| Cn1c(=O)n(Cc2ccc3ccccc3c2)c(=O)c2cc(C(=O)OCc3ccccc3)sc21 [Example 312, 1-Methyl-3-naphthalen-2-ylmethyl-2,4-dioxo-1,2,3,4-tetrahydro-thieno[2,3-d]pyrimidine-6-carboxylic acid benzyl ester] | 7.56 |

More lines, now with the values ahead:

| pIC50 | Compound |
| --- | --- |
| 5.72 | COc1cccc(CNC(=O)c2cc3c(=O)n(CCSc4ccccc4)c(=O)n(C)c3s2)c1 [Example 287] |
| < 4.00 | COc1cccc(CNC(=O)c2cc3c(=O)n(CCNC(=O)c4ccccc4)c(=O)n(C)c3s2)c1 [Example 294] |
| 7.24 | COc1cccc(CNC(=O)c2cc3c(=O)n(CCOc4ccccc4)c(=O)n(C)c3s2)c1 [Example 297] |
| < 4.00 | COC(=O)c1cc2c(=O)n(Cc3ccccc3)c(=O)n(C)c2s1 [Example 300, 3-Benzyl-1-methyl-2,4-dioxo-1,2,3,4-tetrahydro-thieno[2,3-d]pyrimidine-6-carboxylic acid methyl ester] |
| 4.33 | Cn1ccc2cc(COC(=O)c3cc4c(=O)n(Cc5ccccc5)c(=O)n(C)c4s3)ccc21 [Example 305, 3-Benzyl-1-methyl-2,4-dioxo-1,2,3,4-tetrahydro-thieno[2,3-d]pyrimidine-6-carboxylic acid 1-methyl-1H-indol-5-ylmethyl ester] |
| 8.15 | Cn1c(=O)n(Cc2ccncc2)c(=O)c2cc(C(=O)OCc3ccccc3)sc21 [Example 308, 1-Methyl-2,4-dioxo-3-pyridin-4-ylmethyl-1,2,3,4-tetrahydro-thieno[2,3-d]pyrimidine-6-carboxylic acid benzyl ester] |
| 7.25 | Cn1c(=O)n(Cc2ccc(C(C)(C)C)cc2)c(=O)c2cc(C(=O)OCc3ccccc3)sc21 [Example 309, 3-(4-tert-Butyl-benzyl)-1-methyl-2,4-dioxo-1,2,3,4-tetrahydro-thieno[2,3-d]pyrimidine-6-carboxylic acid benzyl ester] |
| 8.19 | Cn1c(=O)n(Cc2ccc(C#N)cc2)c(=O)c2cc(C(=O)OCc3ccccc3)sc21 [Example 313, 3-(4-Cyano-benzyl)-1-methyl-2,4-dioxo-1,2,3,4-tetrahydro-thieno[2,3-d]pyrimidine-6-carboxylic acid benzyl ester] |
| 7.73 | Cn1c(=O)n(Cc2ccccc2)c(=O)c2cc(C(=O)OCc3ccc4occc4c3)sc21 [Example 314, 3-Benzyl-1-methyl-2,4-dioxo-1,2,3,4-tetrahydro-thieno[2,3-d]pyrimidine-6-carboxylic acid benzofuran-5-ylmethyl ester] |
| 7.69 | COc1cc(Cn2c(=O)c3cc(C(=O)OCc4ccccc4)sc3n(C)c2=O)cc(OC)c1 [Example 315, 3-(3,5-Dimethoxy-benzyl)-1-methyl-2,4-dioxo-1,2,3,4-tetrahydro-thieno[2,3-d]pyrimidine-6-carboxylic acid benzyl ester] |
| < 4.00 | COc1ccc(CCNC(=O)c2cc3c(=O)n(Cc4ccccc4)c(=O)n(C)c3s2)cc1OC [Example 320, 3-Benzyl-1-methyl-2,4-dioxo-1,2,3,4-tetrahydro-thieno[2,3-d]pyrimidine-6-carboxylic acid[2-(3,4-dimethoxy-phenyl)-ethyl]-amide] |
| < 4.00 | Cn1c(=O)n(Cc2ccccc2)c(=O)c2cc(C(=O)NCc3ccc(N)cc3)sc21 [Example 321, 3-Benzyl-1-methyl-2,4-dioxo-1,2,3,4-tetrahydro-thieno[2,3-d]pyrimidine-6-carboxylic acid 4-amino-benzylamide] |
